# In patent US20150299188A1, “HETEROCYCLIC COMPOUND” (priority 2012, published 2015):
# Test system: FLAP (5-lipoxygenase activating protein)
# Assay: In vitro binding test: displacement of [3H]-7-chloro-3-(5-((3-fluoropyridin-2-yl)methoxy)-2-methylphenyl)-3,4-dihydroquinazolin-2(1H)-one from Sf9 microsome fractions
# Parameters: species or system human and mouse
# Details: Sf9 microsome fractions expressing FLAP; 100% = radioligand binding with 10 μM sodium 3-(3-(tert-butylsulfanyl)-1-(4-chlorobenzyl)-5-isopropyl-1H-indol-2-yl)-2,2-dimethylpropanoate, 0% = DMSO; test compound concentration not given
# Procedure, shortened: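 Sf9 microsomes expressing human or mouse FLAP (2 μg/mL) preincubated with compound 10 min at room temperature, then 120 nM tritiated quinazolinone ligand added for 60 min; buffer 100 mM Tris-HCl pH 7.5 with NaCl, EDTA, DTT, glycerol, Tween20. Bound ligand filtered and counted by scintillation; 10 μM indole propanoate defines 100% inhibition, DMSO 0%.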
row,Structure (SMILES),inhibitory rate (%)
1,"Cc1cc2c(c(C)n1)CN(c1cc3c(cc1Cl)CCC(c1ncccc1F)O3)C(=O)N2 (centres unmarked) [Example 63, 3-(6-chloro-2-(3-fluoropyridin-2-yl)-3,4-dihydro-2H-chromen-7-yl)-5,7-dimethyl-3,4-dihydropyrido[4,3-d]pyrimidin-2(1H)-one]",106
2,"CCc1nccc2c1CN(c1cc3c(cc1C)CCC(c1ncccc1F)O3)C(=O)N2 (centres unmarked) [Example 27, 5-ethyl-3-(2-(3-fluoropyridin-2-yl)-6-methyl-3,4-dihydro-2H-chromen-7-yl)-3,4-dihydropyrido[4,3-d]pyrimidin-2(1H)-one]",82
3,"O=C1Nc2cc(CO)ccc2CN1c1cc(OCc2c(F)cccc2F)ccc1Cl [Example 218, 3-(2-chloro-5-((2,6-difluorobenzyl)oxy)phenyl)-7-(hydroxymethyl)-3,4-dihydroquinazolin-2(1H)-one]",95
4,"CC(=O)c1nccc2c1CN(c1cc3c(cc1C)CCC(c1ncccc1F)O3)C(=O)N2 (centres unmarked) [Example 34, 5-acetyl-3-(2-(3-fluoropyridin-2-yl)-6-methyl-3,4-dihydro-2H-chromen-7-yl)-3,4-dihydropyrido[4,3-d]pyrimidin-2(1H)-one]",111
5,"COc1cccnc1C1CCc2cc(Cl)c(N3Cc4c(ccnc4C4CC4)NC3=O)cc2O1 (centres unmarked) [Example 64, 3-(6-chloro-2-(3-methoxypyridin-2-yl)-3,4-dihydro-2H-chromen-7-yl)-5-cyclopropyl-3,4-dihydropyrido[4,3-d]pyrimidin-2(1H)-one]",94
6,"CN(C)C(=O)c1cc2c(c(C3CC3)n1)CN(c1cc3c(cc1Cl)CCC(c1ncccc1F)O3)C(=O)N2 (centres unmarked) [Example 150, 3-(6-chloro-2-(3-fluoropyridin-2-yl)-3,4-dihydro-2H-chromen-7-yl)-5-cyclopropyl-N,N-dimethyl-2-oxo-1,2,3,4-tetrahydropyrido[4,3-d]pyrimidine-7-carboxamide]",98
7,"Cc1cc2c(cc1N1Cc3c(F)cnc(C4CC4)c3NC1=O)OC(c1ncccc1F)CC2 (centres unmarked) [Example 168, 8-cyclopropyl-5-fluoro-3-(2-(3-fluoropyridin-2-yl)-6-methyl-3,4-dihydro-2H-chromen-7-yl)-3,4-dihydropyrido[3,4-d]pyrimidin-2(1H)-one]",91
8,"O=C(NC1COC1)c1cc2c(c(C3CC3)n1)CN(c1cc3c(cc1Cl)CCC(c1ncccc1F)O3)C(=O)N2 (centres unmarked) [Example 98, 3-(6-chloro-2-(3-fluoropyridin-2-yl)-3,4-dihydro-2H-chromen-7-yl)-5-cyclopropyl-N-(oxetan-3-yl)-2-oxo-1,2,3,4-tetrahydropyrido[4,3-d]pyrimidine-7-carboxamide]",94
9,"O=C(c1cc2c(c(C3CC3)n1)CN(c1cc3c(cc1Cl)CCC(c1ncccc1F)O3)C(=O)N2)N1CC(F)(F)C1 (centres unmarked) [Example 139, 3-(6-chloro-2-(3-fluoropyridin-2-yl)-3,4-dihydro-2H-chromen-7-yl)-5-cyclopropyl-7-((3,3-difluoroazetidin-1-yl)carbonyl)-3,4-dihydropyrido[4,3-d]pyrimidin-2(1H)-one]",98
10,"Cc1nc(COc2ccc(C)c(N3Cc4ccc(C(C)(C)O)cc4NC3=O)c2)cs1 [Example 226, 7-(2-hydroxypropan-2-yl)-3-(2-methyl-5-((2-methyl-1,3-thiazol-4-yl)methoxy)phenyl)-3,4-dihydroquinazolin-2(1H)-one]",52
11,"CC(C)(O)c1ccc2c(c1)NC(=O)N(c1cc(OCc3c(F)cccc3F)ccc1Cl)C2 [Example 222, 3-(2-chloro-5-((2,6-difluorobenzyl)oxy)phenyl)-7-(2-hydroxypropan-2-yl)-3,4-dihydroquinazolin-2(1H)-one]",103
12,"Cc1cc2c(cc1N1Cc3c(cc(C4CN(C(=O)n5ccnc5)C4)nc3C3CC3)NC1=O)OC(c1ncccc1F)CC2 (centres unmarked) [Example 49, 5-cyclopropyl-3-(2-(3-fluoropyridin-2-yl)-6-methyl-3,4-dihydro-2H-chromen-7-yl)-7-(1-(1H-imidazol-1-ylcarbonyl)azetidin-3-yl)-3,4-dihydropyrido[4,3-d]pyrimidin-2(1H)-one]",120
13,"COCCNC(=O)c1cc2c(c(C3CC3)n1)CN(c1cc3c(cc1Cl)CCC(c1ncccc1F)O3)C(=O)N2 (centres unmarked) [Example 97, 3-(6-chloro-2-(3-fluoropyridin-2-yl)-3,4-dihydro-2H-chromen-7-yl)-5-cyclopropyl-N-(2-methoxyethyl)-2-oxo-1,2,3,4-tetrahydropyrido[4,3-d]pyrimidine-7-carboxamide]",90
14,"O=C1Nc2ccnc(Cl)c2CN1c1cc2c(cc1Cl)CC[C@H](c1ncccc1F)O2 [Example 3, 5-chloro-3-((2R)-6-chloro-2-(3-fluoropyridin-2-yl)-3,4-dihydro-2H-chromen-7-yl)-3,4-dihydropyrido[4,3-d]pyrimidin-2(1H)-one]",97
15,"O=C1Nc2c(N3CCSCC3)ncc(Cl)c2CN1c1cc2c(cc1Cl)CCC(c1ncccc1F)O2 (centres unmarked) [Example 130, 5-chloro-3-(6-chloro-2-(3-fluoropyridin-2-yl)-3,4-dihydro-2H-chromen-7-yl)-8-(thiomorpholin-4-yl)-3,4-dihydropyrido[3,4-d]pyrimidin-2(1H)-one]",101
16,"Cc1n[nH]c(-c2cc3c(c(C4CC4)n2)CN(c2cc4c(cc2Cl)CCC(c2ncccc2F)O4)C(=O)N3)n1 (centres unmarked) [Example 119, 3-(6-chloro-2-(3-fluoropyridin-2-yl)-3,4-dihydro-2H-chromen-7-yl)-5-cyclopropyl-7-(3-methyl-1H-1,2,4-triazol-5-yl)-3,4-dihydropyrido[4,3-d]pyrimidin-2(1H)-one]",107
17,"O=C1Nc2c(C3CC3)ncc(Cl)c2CN1c1cc2c(cc1Cl)CCC(c1ncccc1F)O2 (centres unmarked) [Example 143, 5-chloro-3-(6-chloro-2-(3-fluoropyridin-2-yl)-3,4-dihydro-2H-chromen-7-yl)-8-cyclopropyl-3,4-dihydropyrido[3,4-d]pyrimidin-2(1H)-one]",89
18,"Cn1nccc1-c1nccc2c1CN(c1cc3c(cc1Cl)CCC(c1ncccc1F)O3)C(=O)N2 (centres unmarked) [Example 60, 3-(6-chloro-2-(3-fluoropyridin-2-yl)-3,4-dihydro-2H-chromen-7-yl)-5-(1-methyl-1H-pyrazol-5-yl)-3,4-dihydropyrido[4,3-d]pyrimidin-2(1H)-one]",113
19,"Cc1cc2c(cc1N1Cc3cc(Cl)ncc3NC1=O)OC(c1ncccc1F)CC2 (centres unmarked) [Example 43, 6-chloro-3-(2-(3-fluoropyridin-2-yl)-6-methyl-3,4-dihydro-2H-chromen-7-yl)-3,4-dihydropyrido[3,4-d]pyrimidin-2 (1H)-one]",107
20,"Cc1cc2c(cc1N1Cc3c(cc(C4COC4)nc3C3CC3)NC1=O)OC(c1ncccc1F)CC2 (centres unmarked) [Example 42, 5-cyclopropyl-3-(2-(3-fluoropyridin-2-yl)-6-methyl-3,4-dihydro-2H-chromen-7-yl)-7-(oxetan-3-yl)-3,4-dihydropyrido[4,3-d]pyrimidin-2(1H)-one]",116

# The next lines start with the values.
row,inhibitory rate (%),Structure (SMILES)
1,101,"Cc1ccc(OCc2ncccc2F)cc1-n1c(=O)[nH]c2cc(N)ccc2c1=O [Example 348, 7-amino-3-(5-((3-fluoropyridin-2-yl)methoxy)-2-methylphenyl)quinazoline-2,4(1H,3H)-dione]"
2,95,"O=c1[nH]c2ccccc2c(=O)n1-c1cc2c(cc1Cl)CCC(c1ncccc1F)O2 (centres unmarked) [Example 372, 3-(6-chloro-2-(3-fluoropyridin-2-yl)-3,4-dihydro-2H-chromen-7-yl)quinazoline-2,4(1H,3H)-dione]"
3,93,"Cc1ccc(OCc2ncccc2F)cc1N1Cc2cccc(Cl)c2NC1=O [Example 253, 8-chloro-3-(5-((3-fluoropyridin-2-yl)methoxy)-2-methylphenyl)-3,4-dihydroquinazolin-2(1H)-one]"
4,86,"O=C1Nc2ccccc2CN1c1cc(OCc2ncccc2F)ccc1CNC1CC1 [Example 312, 3-(2-((cyclopropylamino)methyl)-5-((3-fluoropyridin-2-yl)methoxy)phenyl)-3,4-dihydroquinazolin-2(1H)-one]"
5,95,"Cc1ccc(OCc2ncccc2F)cc1N1Cc2c(cc[nH]c2=O)NC1=O [Example 310, 3-(5-((3-fluoropyridin-2-yl)methoxy)-2-methylphenyl)-4,6-dihydropyrido[4,3-d]pyrimidine-2,5(1H,3H)-dione]"
6,99,"CCCc1ccc(OCc2ncccc2F)cc1N1Cc2ccccc2NC1=O [Example 245, 3-(5-((3-fluoropyridin-2-yl)methoxy)-2-propylphenyl)-3,4-dihydroquinazolin-2(1H)-one]"
7,103,"COC(=O)c1ccc2c(=O)n(-c3cc(OCc4c(F)cccc4F)ccc3C)c(=O)[nH]c2c1 [Example 335, methyl 3-(5-((2,6-difluorobenzyl)oxy)-2-methylphenyl)-2,4-dioxo-1,2,3,4-tetrahydroquinazoline-7-carboxylate]"
8,76,"O=C(O)CCc1ccc(OCc2ncccc2F)cc1N1Cc2ccccc2NC1=O [Example 229, 3-(4-((3-fluoropyridin-2-yl)methoxy)-2-(2-oxo-1,4-dihydroquinazolin-3(2H)-yl)phenyl)propanoic acid]"
9,116,"COc1ccc(CN2C(=O)N(c3cc(OCc4ncccc4F)ccc3Br)Cc3ccccc32)cc1 [Example 258, 3-(2-bromo-5-((3-fluoropyridin-2-yl)methoxy)phenyl)-1-(4-methoxybenzyl)-3,4-dihydroquinazolin-2(1H)-one]"
